Assay results from US20220305012A1, “L[…] TREATING SLEEP ISSUES” (EISAI R&D MANAGEMENT CO., LTD., priority 2019, published 2022).

What was measured:
Type in all cases: in vivo, human
[1] = system: Subjects Having Insomnia Disorder; assay: Example 2: REM latency; conditions: both doses (FIG. 16)
[2] = system: Subjects Having Insomnia Disorder; assay: Example 1: subjective total sleep time (sTST), Sleep Diary
Source text: As used herein, the term “subjective total sleep time”, abbreviated as “sTST”, means the derived minutes of sleep from sleep onset until the time the subject stopped trying to sleep for the night. In some embodiments, sTST is derived from data entered in a subject's Sleep Diary.
(§1) In some embodiments, sleep diaries were used to assess sleep parameters reported by subjects (i.e., subjective assessments) including subjective sleep onset latency (sSOL), subjective sleep efficiency (sSE), subjective WASO (sWASO), and subjective total sleep time (sTST). Subjects were instructed to complete the Sleep Diary developed based on the consensus Sleep Diary as described in Carney et al., “The consensus sleep diary: standardizing prospective sleep self-monitoring,” Sleep 2012; 35(2):287-302. In some embodiments, the Sleep Diary was used to assess the subject's global perception of quality of sleep on the previous night with the following question: “How would you rate the quality of your sleep last night?” Subjects rated the quality of their sleep on a scale from 1 to 9, with 1 being extremely poor and 9 being extremely good. In some embodiments, the Sleep Diary was used to assess subjective ratings of morning sleepiness with the following question: “How alert/sleepy do you feel this morning?” Subjects rated their sleepiness/alertness level on a Likert scale from 1 to 9, with 1 being extremely sleepy and 9 being extremely alert.
sTST—subjective total sleep time: derived minutes of sleep from sleep onset until the time the subject stopped trying to sleep for the night.
(§2) Subjects were randomized in a double-blind manner and received either placebo, 5 mg of lemborexant, or 10 mg of lemborexant (approximately 1:1:1 randomization). All subjects underwent routine safety monitoring through the study, including assessments of treatment-emergent adverse events, 12-lead electrocardiograms, vital signs, weight, and clinical hematology and blood chemistry labs. Suicidality was assessed using the eC-SSRS.
(§3) Treatment period 1 began with the first dose of randomized study medication (placebo, 5 mg of lemborexant, or 10 mg of lemborexant). Subjects completed sleep diaries daily in the morning, within one hour of waketime. The subjects were assessed by a clinician one month, two months, three months, and six months after initiation of Treatment period 1. The following assessments were conducted:
In addition to the aforementioned study endpoints, the study included several additional secondary endpoints: • Mean change from study baseline of subjective sleep onset latency, subjective sleep efficiency, subjective wake after sleep onset, and subjective total sleep time at the beginning of treatment (mean of the 7 nights after the first dose in Period 1), at Month 1 and at Month 3. • Mean change from study baseline of subjective total sleep time at Month 6. • Change from study baseline in daytime functioning, assessed as the total score from the 4 items on daytime functioning, on the Insomnia Severity Index, at Months 1, 3, and 6.

[3] = system: Subjects Having Insomnia Disorder; assay: Example 1: subjective wake after sleep onset (sWASO), Sleep Diary
Source text: As used herein, the term “subjective wake after sleep onset”, abbreviated as “sWASO”, means the sum of estimated minutes of wake during the night after initial sleep onset until the time the subject stopped trying to sleep for the night, operationalized as the time the subject got out of bed for the day. In some embodiments, sWASO is derived from data entered in a subject's Sleep Diary. As used herein, an “improvement of sWASO” means a reduction in sWASO.
as §1
sWASO—subjective wake after sleep onset: sum of estimated minutes of wake during the night after initial sleep onset until the time the subject stopped trying to sleep for the night, operationalized as the time the subject got out of bed for the day.
as §2, §3
This study had two key secondary endpoints. The first key secondary endpoint was the mean change from study baseline in subjective sleep efficiency at month 6. The second key secondary endpoint was the mean change from study baseline of subjective wake after sleep onset at month 6.

[4] = 5 mg, change from Study Baseline after 1 Month
[5] = 5 mg, change from Study Baseline after 3 Months
[6] = 5 mg, change from Study Baseline after 6 Months
[7] = 5 mg, change from Study Baseline after 7 Nights
[8] = 10 mg, change from Study Baseline after 1 Month
[9] = 10 mg, change from Study Baseline after 3 Months
[10] = 10 mg, change from Study Baseline after 6 Months
[11] = 10 mg, change from Study Baseline after 7 Nights

With `Cc1ncc(OC[C@@]2(c3cccc(F)c3)C[C@H]2C(=O)Nc2ccc(F)cn2)c(C)n1` [Lemborexant, (1R,2S)-2-(((2,4-dimethylpyrimidin-5-yl)oxy)methyl)-2-(3-fluorophenyl)-N-(5-fluoropyridin-2-yl)cyclopropanecarboxamide] the REM latency [1] was “greater mean decrease in REM latency compared to treatment with placebo and zolpidem ER”, the “subjective total sleep time compared with placebo” value ([2]; 5 mg and 10 mg, at the equivalent timepoint (Table 5)) was “greater increase in subjective total sleep time than subjects treated with placebo” and the “sTST, Mean” value ([2]; 5 mg, First 7 Nights) was 350.80 min. For the same compound, the “sTST, Median” value ([2]; 5 mg, First 7 Nights) was 366.0 min, the “sTST, Mean” value ([2]; 5 mg, Month 1) was 357.14 min and the “sTST, Median” value ([2]; 5 mg, Month 1) was 374.64 min. For the same compound, the “sTST, Mean” value ([2]; 5 mg, Month 3) was 386.42 min, the “sTST, Median” value ([2]; 5 mg, Month 3) was 397.86 min and the “sTST, Mean” value ([2]; 5 mg, Month 6) was 392.08 min. The “sTST, Median” value ([2]; 5 mg, Month 6) was 403.43 min, the “sTST, Mean” value ([2]; 5 mg, Study Baseline) was 315.52 min and the “sTST, Median” value ([2]; 5 mg, Study Baseline) was 332.14 min. The “sTST Change from Study Baseline, Mean” value ([2]; 5 mg, after 1 Month) was 39.32 min, the “sTST Change from Study Baseline, Median” value ([2]; 5 mg, after 1 Month) was 36.33 min and the “sTST Change from Study Baseline, Mean” value ([2]; 5 mg, after 3 Months) was 65.82 min. The “sTST Change from Study Baseline, Median” value ([2]; 5 mg, after 3 Months) was 60.71 min, the “sTST Change from Study Baseline, Mean” value ([2]; 5 mg, after 6 Months) was 76.21 min and the “sTST Change from Study Baseline, Median” value ([2]; 5 mg, after 6 Months) was 70.71 min. For the same compound, the “sTST Change from Study Baseline, Mean” value ([2]; 5 mg, after 7 Nights) was 34.29 min, the “sTST Change from Study Baseline, Median” value ([2]; 5 mg, after 7 Nights) was 30.71 min and the “sTST LSM treatment difference: Lemborexant/Placebo” value [2, 4] was 11.760 min. The “sTST LSM treatment difference: Lemborexant/Placebo” value [2, 5] was 17.374 min, the “sTST LSM treatment difference: Lemborexant/Placebo” value [2, 6] was 18.555 min and the “sTST LSM treatment difference: Lemborexant/Placebo” value [2, 7] was 22.034 min. The “sTST, Mean” value ([2]; 10 mg, First 7 Nights) was 351.43 min, the “sTST, Median” value ([2]; 10 mg, First 7 Nights) was 365.11 min and the “sTST, Mean” value ([2]; 10 mg, Month 1) was 355.96 min. For the same compound, the “sTST, Median” value ([2]; 10 mg, Month 1) was 369.23 min, the “sTST, Mean” value ([2]; 10 mg, Month 3) was 374.99 min and the “sTST, Median” value ([2]; 10 mg, Month 3) was 391.43 min. The “sTST, Mean” value ([2]; 10 mg, Month 6) was 379.25 min, the “sTST, Median” value ([2]; 10 mg, Month 6) was 398.57 min and the “sTST, Mean” value ([2]; 10 mg, Study Baseline) was 306.89 min. For the same compound, the “sTST, Median” value ([2]; 10 mg, Study Baseline) was 315.33 min, the “sTST Change from Study Baseline, Mean” value ([2]; 10 mg, after 1 Month) was 53.22 min and the “sTST Change from Study Baseline, Median” value ([2]; 10 mg, after 1 Month) was 47.77 min. For the same compound, the “sTST Change from Study Baseline, Mean” value ([2]; 10 mg, after 3 Months) was 70.95 min, the “sTST Change from Study Baseline, Median” value ([2]; 10 mg, after 3 Months) was 64.52 min and the “sTST Change from Study Baseline, Mean” value ([2]; 10 mg, after 6 Months) was 78.32 min. For the same compound, the “sTST Change from Study Baseline, Median” value ([2]; 10 mg, after 6 Months) was 72.93 min, the “sTST Change from Study Baseline, Mean” value ([2]; 10 mg, after 7 Nights) was 46.01 min and the “sTST Change from Study Baseline, Median” value ([2]; 10 mg, after 7 Nights) was 42.31 min. For the same compound, the “sTST LSM treatment difference: Lemborexant/Placebo” value [2, 8] was 22.131 min, the “sTST LSM treatment difference: Lemborexant/Placebo” value [2, 9] was 21.686 min and the “sTST LSM treatment difference: Lemborexant/Placebo” value [2, 10] was 22.686 min. The “sTST LSM treatment difference: Lemborexant/Placebo” value [2, 11] was 31.796 min, the “subjective wake after sleep onset compared with placebo” value ([3]; 5 mg and 10 mg, at the equivalent timepoint (Table 4)) was “greater reduction in mean subjective wake after sleep onset than subjects treated with placebo” and the “sWASO, Mean” value ([3]; 5 mg, First 7 Nights) was 113.53 min. The “sWASO, Median” value ([3]; 5 mg, First 7 Nights) was 87.86 min, the “sWASO, Mean” value ([3]; 5 mg, Month 1) was 107.07 min and the “sWASO, Median” value ([3]; 5 mg, Month 1) was 85.29 min. The “sWASO, Mean” value ([3]; 5 mg, Month 3) was 89.48 min, the “sWASO, Median” value ([3]; 5 mg, Month 3) was 66.43 min and the “sWASO, Mean” value ([3]; 5 mg, Month 6) was 81.79 min. For the same compound, the “sWASO, Median” value ([3]; 5 mg, Month 6) was 60.00 min, the “sWASO, Mean” value ([3]; 5 mg, Study Baseline) was 132.77 min and the “sWASO, Median” value ([3]; 5 mg, Study Baseline) was 114.71 min. For the same compound, the “sWASO Change from Study Baseline, Mean” value ([3]; 5 mg, after 1 Month) was -23.42 min, the “sWASO Change from Study Baseline, Median” value ([3]; 5 mg, after 1 Month) was -19.29 min and the “sWASO Change from Study Baseline, Mean” value ([3]; 5 mg, after 3 Months) was -42.98 min. For the same compound, the “sWASO Change from Study Baseline, Median” value ([3]; 5 mg, after 3 Months) was -34.57 min, the “sWASO Change from Study Baseline, Mean” value ([3]; 5 mg, after 6 Months) was -51.45 min and the “sWASO Change from Study Baseline, Median” value ([3]; 5 mg, after 6 Months) was -44.02 min. The “sWASO Change from Study Baseline, Mean” value ([3]; 5 mg, after 7 Nights) was -20.21 min, the “sWASO Change from Study Baseline, Median” value ([3]; 5 mg, after 7 Nights) was -16.01 min and the “sWASO LSM treatment difference: Lemborexant/Placebo” value [3, 4] was -5.514 min. For the same compound, the “sWASO LSM treatment difference: Lemborexant/Placebo” value [3, 5] was -13.424 min, the “sWASO LSM treatment difference: Lemborexant/Placebo” value [3, 6] was -17.474 min and the “sWASO LSM treatment difference: Lemborexant/Placebo” value [3, 7] was -14.328 min. For the same compound, the “sWASO, Mean” value ([3]; 10 mg, First 7 Nights) was 113.77 min, the “sWASO, Median” value ([3]; 10 mg, First 7 Nights) was 92.29 min and the “sWASO, Mean” value ([3]; 10 mg, Month 1) was 109.42 min. For the same compound, the “sWASO, Median” value ([3]; 10 mg, Month 1) was 95.00 min, the “sWASO, Mean” value ([3]; 10 mg, Month 3) was 95.66 min and the “sWASO, Median” value ([3]; 10 mg, Month 3) was 70.00 min. The “sWASO, Mean” value ([3]; 10 mg, Month 6) was 86.38 min, the “sWASO, Median” value ([3]; 10 mg, Month 6) was 62.14 min and the “sWASO, Mean” value ([3]; 10 mg, Study Baseline) was 136.83 min. The “sWASO, Median” value ([3]; 10 mg, Study Baseline) was 120.57 min, the “sWASO Change from Study Baseline, Mean” value ([3]; 10 mg, after 1 Month) was -26.82 min and the “sWASO Change from Study Baseline, Median” value ([3]; 10 mg, after 1 Month) was -22.29 min. For the same compound, the “sWASO Change from Study Baseline, Mean” value ([3]; 10 mg, after 3 Months) was -39.42 min, the “sWASO Change from Study Baseline, Median” value ([3]; 10 mg, after 3 Months) was -36.07 min and the “sWASO Change from Study Baseline, Mean” value ([3]; 10 mg, after 6 Months) was -48.12 min. For the same compound, the “sWASO Change from Study Baseline, Median” value ([3]; 10 mg, after 6 Months) was -47.43 min, the “sWASO Change from Study Baseline, Mean” value ([3]; 10 mg, after 7 Nights) was -23.30 min and the “sWASO Change from Study Baseline, Median” value ([3]; 10 mg, after 7 Nights) was -20.71 min. For the same compound, the “sWASO LSM treatment difference: Lemborexant/Placebo” value [3, 8] was -7.005 min, the “sWASO LSM treatment difference: Lemborexant/Placebo” value [3, 9] was -10.079 min and the “sWASO LSM treatment difference: Lemborexant/Placebo” value [3, 10] was -12.671 min. The “sWASO LSM treatment difference: Lemborexant/Placebo” value [3, 11] was -16.720 min.
